Some test systems named below: OVCAR-5 ovarian; UACC-62 melanoma; KM12 colon; RPMI-8226 leukemia; NCI/ADR-RES ovarian; M14 melanoma; TK-10 renal; SF-268 CNS.
What all share (assay): NCI anticancer screen, dose series, 48 h

The source of these data is PubChem BioAssay (NCI).

Structures are written as SMILES.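 Each compound was tested at five concentrations against cells in 96-well plates for 48 hours. At the GI50, growth is halved. TGI is the concentration that stops growth completely.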

`N#CC(NC12CC3CC(CC(C3)C1)C2)c1ccccc1` (stereo unspecified): the TGI with OVCAR-5 ovarian, in the assay with UACC-62 melanoma, in the assay on KM12 colon, with RPMI-8226 leukemia, with NCI/ADR-RES ovarian and in the assay with M14 melanoma was above 100 µM each time. The TGI with TK-10 renal and in the assay with SF-268 CNS was above 100 µM each time.
As for `C[CH2][Sn]1([CH2]C)[O]C2C(O)OC(CO)C(O)C2[O]1` (stereo unspecified), the GI50 with OVCAR-5 ovarian is 20.8 µM; in the assay with UACC-62 melanoma it was 17.9 µM; in the assay with KM12 colon, 90.4 µM; with RPMI-8226 leukemia, 7.16 µM; in the assay with NCI/ADR-RES ovarian, above 100 µM; in the assay on M14 melanoma it was 37.3 µM. The GI50 is 18400 nM in the assay with TK-10 renal and 39.4 µM in the assay with SF-268 CNS. Further, the TGI is 47.3 µM in the assay on OVCAR-5 ovarian; 39.6 µM in the assay with UACC-62 melanoma; above 100 µM in the assay on KM12 colon; 23.8 µM in the assay on RPMI-8226 leukemia; above 100 µM in the assay on NCI/ADR-RES ovarian; above 100 µM in the assay on M14 melanoma. In addition, the TGI in the assay with TK-10 renal was 36.5 µM; in the assay on SF-268 CNS, above 100 µM.
`CCOC(=O)CC(=O)N(c1ccc(OC)cc1)C(C(=O)OC)c1ccccc1` (stereo unspecified): the TGI with OVCAR-5 ovarian, in the assay on UACC-62 melanoma, in the assay on KM12 colon, with RPMI-8226 leukemia, in the assay on NCI/ADR-RES ovarian and in the assay with M14 melanoma was above 100 µM throughout. For the same compound, the TGI in the assay with TK-10 renal and in the assay on SF-268 CNS was above 100 µM throughout.
As to `O=C(O[C@H]1CN[C@H](C#Cc2cc3ncnc(Nc4ccc(Cc5ccccc5)cc4)c3s2)C1)N1CCOCC1`, the GI50 with OVCAR-5 ovarian is 9 µM; with UACC-62 melanoma, 6.25 µM; with KM12 colon, 4.28 µM; in the assay on RPMI-8226 leukemia, 6.47 µM; in the assay with NCI/ADR-RES ovarian it was 5.72 µM; with M14 melanoma it was 6.08 µM. The GI50 with TK-10 renal is 548 nM; in the assay on SF-268 CNS, 3.8 µM. Further, the TGI with OVCAR-5 ovarian is above 25 µM; in the assay on UACC-62 melanoma, above 23.5 µM; with KM12 colon, 8.72 µM; in the assay on RPMI-8226 leukemia it was 24.9 µM; with NCI/ADR-RES ovarian, above 23.8 µM; with M14 melanoma, 18.9 µM. The TGI in the assay with TK-10 renal was 4.97 µM; in the assay on SF-268 CNS, 10.6 µM.
Regarding `Oc1ccc(Cl)cc1Cc1cc(Cl)cc(Cc2cc(Cl)ccc2O)c1O`, the TGI in the assay with OVCAR-5 ovarian is 12.2 µM; in the assay on UACC-62 melanoma it was 10.1 µM; with KM12 colon, 10.5 µM; with RPMI-8226 leukemia, 5.49 µM; in the assay on NCI/ADR-RES ovarian it was 6.82 µM; in the assay on M14 melanoma, 6.71 µM. In addition, the TGI in the assay on TK-10 renal is 9.17 µM; with SF-268 CNS, 12 µM.
Regarding `O=C(c1ccc(F)c(F)c1Nc1ccc(I)cc1F)N1CC(O)([C@H]2CCCCN2)C1`, the GI50 is 0.914 µM in the assay with OVCAR-5 ovarian; 0.097 µM in the assay with UACC-62 melanoma; 1.12 µM in the assay on KM12 colon; 4.03 µM with RPMI-8226 leukemia; 8.74 µM in the assay with NCI/ADR-RES ovarian; 0.087 µM in the assay with M14 melanoma. Further, the GI50 in the assay with TK-10 renal was 1400 nM; in the assay on SF-268 CNS it was 9.83 µM. Besides, the TGI in the assay with OVCAR-5 ovarian is 15.5 µM; in the assay with UACC-62 melanoma it was 2.92 µM; in the assay on KM12 colon, 14 µM; in the assay on RPMI-8226 leukemia it was 20.8 µM; in the assay on NCI/ADR-RES ovarian, 23 µM; with M14 melanoma, 2.52 µM. The TGI with TK-10 renal stood at 15.3 µM; in the assay with SF-268 CNS, 23.4 µM.
Turning to `O=C(/C=C\c1cccc([N+](=O)[O-])c1)c1ccccc1`, the GI50 is 3.92 µM with OVCAR-5 ovarian; 7.93 µM with UACC-62 melanoma; 2.36 µM with KM12 colon; 1.07 µM in the assay with RPMI-8226 leukemia; 5.48 µM in the assay on NCI/ADR-RES ovarian; 3.74 µM in the assay with M14 melanoma. Further, the GI50 in the assay on TK-10 renal was 2050 nM; with SF-268 CNS, 5.46 µM. In addition, the TGI in the assay on OVCAR-5 ovarian was 18.7 µM; in the assay on UACC-62 melanoma, 22 µM; in the assay with KM12 colon, 5.41 µM; in the assay on RPMI-8226 leukemia, above 100 µM; in the assay with NCI/ADR-RES ovarian, 30.1 µM; in the assay on M14 melanoma, 14.2 µM. The TGI with TK-10 renal is 5.32 µM; with SF-268 CNS, 20.5 µM.
`COc1cc(-c2nn(C)nc2-c2cc3ccccc3s2)cc(OC)c1OC`: the GI50 is 2.39 µM with OVCAR-5 ovarian; 0.0538 µM with UACC-62 melanoma; 0.0549 µM in the assay with KM12 colon; 0.362 µM in the assay on RPMI-8226 leukemia; 0.103 µM with NCI/ADR-RES ovarian; 0.0769 µM in the assay with M14 melanoma. Further, the GI50 in the assay with TK-10 renal is 578 nM; with SF-268 CNS, 0.638 µM. The TGI in the assay with OVCAR-5 ovarian, in the assay with UACC-62 melanoma, with KM12 colon, in the assay on RPMI-8226 leukemia, in the assay on NCI/ADR-RES ovarian and in the assay on M14 melanoma was above 100 µM throughout. The TGI in the assay on TK-10 renal and with SF-268 CNS was above 100 µM throughout.
For the compound `N#Cc1cc(-c2ccccc2)[nH]c1-c1nccc2ccccc12`, the GI50 in the assay on OVCAR-5 ovarian is 31.7 µM; with UACC-62 melanoma, 7.36 µM; with KM12 colon, 20.7 µM; in the assay on RPMI-8226 leukemia it was 4.35 µM; in the assay on NCI/ADR-RES ovarian it was 6.44 µM; in the assay on M14 melanoma it was 14.9 µM. Also, the results for the GI50 in the assay on TK-10 renal and with SF-268 CNS were 25300 nM and 22.6 µM, respectively. Further, the TGI is above 100 µM in the assay with OVCAR-5 ovarian; above 100 µM with UACC-62 melanoma; above 100 µM in the assay on KM12 colon; 53.2 µM in the assay on RPMI-8226 leukemia; above 100 µM in the assay with NCI/ADR-RES ovarian; 84.7 µM with M14 melanoma. For the same compound, the TGI with TK-10 renal and in the assay with SF-268 CNS was above 100 µM throughout.
`Cn1c(=O)c(Sc2ccccc2F)cc2cnc(NC3CCOCC3)nc21`: the GI50 in the assay on OVCAR-5 ovarian, in the assay with UACC-62 melanoma, in the assay on KM12 colon, in the assay on RPMI-8226 leukemia, in the assay on NCI/ADR-RES ovarian and with M14 melanoma was above 25 µM each time. Besides, the GI50 with TK-10 renal was above 25000 nM; in the assay on SF-268 CNS, above 25 µM. Besides, the TGI in the assay with OVCAR-5 ovarian, in the assay on UACC-62 melanoma, with KM12 colon, with RPMI-8226 leukemia, in the assay with NCI/ADR-RES ovarian and in the assay on M14 melanoma was above 25 µM throughout. The TGI in the assay on TK-10 renal and in the assay on SF-268 CNS was above 25 µM in each case.
